According to article PMC11345769, “(SiFA)SeFe: A Hydrophilic Silicon-Based Fluoride Acceptor Enabling Versatile Peptidic Radiohybrid Tracers” (Journal of medicinal chemistry, 2024):

Legend:
[1] = stability of 18F-labeled model bioconjugates, physiological conditions; type: physicochemical; conditions: buffer, pH 7.4
Procedure: (§1) To a solution of 90 μL aqueous K2CO3 buffer (pH 7.4) were added 10 μL of the respective ^18F-labeled (SiFA)SeFe-bioconjugate. The solution was kept at 37 °C and for each time point (0, 30, 60, 90, 120 min) 10 μL were analyzed via Radio-TLC. The half-life was calculated from the ratio between free fluorine-18 and labeled peptide.

[2] = stability of 18F-labeled model bioconjugates, reverse isotopic exchange; type: physicochemical; conditions: buffer, pH 6.5
Procedure: To 10 μL of the respective ^18F-labeled (SiFA)SeFe-bioconjugate, a solution of 10 μL 10 mM NaF (pH = 6.5) and 80 μL H2O was added. The solution was kept at RT and for each time point (0, 30, 60, 90, 120 min) 10 μL was analyzed via Radio-TLC. The half-life was calculated from the ratio between free fluorine-18 and labeled peptide.

[3] = stability of 18F-labeled model bioconjugates, lutetium labeling conditions; type: physicochemical; conditions: buffer, pH 5.5
Procedure: as §1, with “of 10” for “of 90”, “aqueous sodium acetate” for “aqueous K2CO3”, “(pH 5.5) and 80 μL 0.04 M HCl” for “(pH 7.4)”, “at 90” for “at 37”

[4] = molecular target: T1, human serum albumin (Homo sapiens, UniProt P02768); test: human serum albumin binding by HPAC; type: in vitro ADME; conditions: non-radiolabeled compounds, n=1
T1 construct: purchased Daicel, Tokio, Japan Chiralpak HSA column (50 × 3 mm, 5 μm, H13 h-2433)
T1 sequence (P02768 25-609): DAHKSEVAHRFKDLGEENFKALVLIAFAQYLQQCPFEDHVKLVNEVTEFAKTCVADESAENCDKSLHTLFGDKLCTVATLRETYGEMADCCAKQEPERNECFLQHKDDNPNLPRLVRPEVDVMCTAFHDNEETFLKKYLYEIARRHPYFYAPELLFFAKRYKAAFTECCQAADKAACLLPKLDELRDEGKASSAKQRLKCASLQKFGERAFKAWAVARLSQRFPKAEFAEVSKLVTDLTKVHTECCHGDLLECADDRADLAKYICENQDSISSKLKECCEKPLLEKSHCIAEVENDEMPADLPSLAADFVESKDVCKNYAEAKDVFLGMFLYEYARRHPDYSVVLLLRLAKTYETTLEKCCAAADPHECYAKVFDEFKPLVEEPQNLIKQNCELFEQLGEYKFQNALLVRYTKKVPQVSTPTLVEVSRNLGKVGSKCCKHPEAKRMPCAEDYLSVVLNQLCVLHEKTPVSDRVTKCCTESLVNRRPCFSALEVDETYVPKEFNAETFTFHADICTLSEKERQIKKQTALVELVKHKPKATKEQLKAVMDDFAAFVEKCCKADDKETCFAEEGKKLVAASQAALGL
Procedure: High performance affinity chromatography (HPAC) was used to determine representative values for HSA binding of the ligands and their references, since it can influence the distribution and pharmacokinetics of radiopharmaceuticals.[43],[44]
HSA binding studies were performed according to a previously published procedure, using RP-HPLC and HSA which is solid-phase fixed on a Chiralpak HSA column (50 × 3 mm, 5 μm, H13 h-2433, Daicel, Tokio, Japan).[51] A flow rate of 0.5 mL/min at RT was used. A freshly prepared 50 mM aqueous solution of NH4OAc (pH 6.9) was used as mobile phase A, and isopropanol (HPLC grade, VWR, Germany) was used as mobile phase B. A gradient of 100% A (0 to 3 min) followed by 80% A (3 to 40 min) was used for the experiments. Before the analysis of all compounds, the column was calibrated with nine reference substances having HSA binding known from the literature in the range of 13 to 99%.[51],[52] All compounds, were prepared in a 1/1 mixture (v/v) of isopropanol and a 50 mM aqueous solution of NH4OAc (pH 6.9) at a final concentration of 0.5 mg/mL. Nonlinear regression was performed using OriginPro 2016G software (North-ampton, United States).

[5] = stability in human serum (radio-RP-HPLC); type: in vitro ADME; conditions: 37 °C; for Intact tracer in human serum, 24 h: n=3; for remaining at 24 h, 25 MBq/mL: human, serum, n=3, read-out: Intact tracer in human serum, 24 h
Procedure: Stability studies in human serum were also performed by incubating the ^18F-labeled ligands [^18F][^natGa]Ga-(SiFA)-SeFe-rhTATE1, [^18F][^natGa]Ga-(SiFA)SeFe-rhTATE2, [^18F][^natLu]Lu-(SiFA)SeFe-rhTATE3 and [^18F][^natLu]Lu-(SiFA)BA-rhTATE3 (for 1 h), as well as the ^177Lu-labeled ligands [^177Lu]Lu-(SiFA)SeFe-rhTATE3 and [^177Lu]Lu-(SiFA)BA-rhTATE3 for 1 and 24 h at 37 °C (Figure 3D). Afterward, the samples were analyzed for the intact tracer by radio-RP-HPLC (see SI, Table S4).
5 MBq of the respective ^18F-/^177Lu-labeled compound was added to 200 μL of human serum (from a healthy volunteer) and incubated at 37 °C for 1 h. After the addition of 50 vol % of cold ethanol and 150 vol % of cold MeCN, centrifugation was performed at 13.000 rpm for 20 min. The supernatant was decanted and centrifuged at 13.000 rpm for 10 min in a centrifuge tube with a 0.45 μm cellulose acetate filter. […] of the remaining filtrate was injected into RP-HPLC and the number of intact radioligand was quantified.

[6] = physiological conditions, 18F-labeled, Radio-TLC, read-out: Half-life, pH 7.4, 37 °C
[7] = reverse isotopic exchange, 18F-labeled, Radio-TLC, read-out: Half-life, pH 6.5, 1 mM aq. NaF, RT
[8] = lutetium labeling conditions, 18F-labeled, Radio-TLC, read-out: Half-life, pH 5.5, 90 °C (converted)

## CC(C)(C)[Si](F)(c1cc(CN)cc(C(=O)NCC(=O)N[C@@H](CCCCN)C(=O)O)c1)C(C)(C)C [1X1, (3-(aminomethyl)-5-(di-tert-butylfluorosilyl)benzoyl)glycyl-L-lysine]
[1]
  half-life: 27 ± 2.1 min
[2]
  half-life: 10 ± 1.1 min
[3]
  half-life: 38 ± 0.9 h

## CC(C)(C)[Si](F)(c1cc(CN)cc(C(=O)NCC(=O)N[C@@H](CC(=O)O)C(=O)O)c1)C(C)(C)C [1X2, (3-(aminomethyl)-5-(di-tert-butylfluorosilyl)benzoyl)glycyl-L-as-partic acid]
[1]
  half-life: 299 ± 12 min
[2]
  half-life: 25 ± 6.1 min
[3]
  half-life: 37 ± 11 h

## CC(C)(C)[Si](F)(c1cc(CN)cc(C(=O)NCC(=O)N[C@@H](Cc2ccc(O)cc2)C(=O)O)c1)C(C)(C)C [1X3, (3-(aminomethyl)-5-(di-tert-butylfluorosilyl)benzoyl)glycyl-L-tyrosine]
[1]
  half-life: 14 ± 3 min
[2]
  half-life: 27 ± 2.2 min
[3]
  half-life: 43 ± 2.8 h

## CC(C)(C)[Si](F)(c1cc(CNC(=O)[C@@H](N)CCCCN)cc(C(=O)NCC(=O)N[C@@H](CCCCN)C(=O)O)c1)C(C)(C)C [2X1, (3-(di-tert-butylfluorosilyl)-5-(((S)-2,6-diaminohexanamido)-methyl)benzoyl)glycyl-L-lysine]
[1]; [6]
  half-life: 18 ± 2.1 min
[2]; [7]
  half-life: 14 ± 0.8 min
[3]; [8]
  half-life: 25 ± 5.5 h

## CC(C)(C)[Si](F)(c1cc(CNC(=O)[C@@H](N)CCCCN)cc(C(=O)NCC(=O)N[C@@H](CC(=O)O)C(=O)O)c1)C(C)(C)C [2X2, (3-(di-tert-butylfluorosilyl)-5-(((S)-2,6-diaminohexanamido)-methyl)benzoyl)glycyl-L-aspartic acid]
[1]; [6]
  half-life: 43 ± 1.3 min
[2]; [7]
  half-life: 29 ± 0.8 min
[3]; [8]
  half-life: 49 ± 7.1 h

## CC(C)(C)[Si](F)(c1cc(CNC(=O)[C@@H](N)CCCCN)cc(C(=O)NCC(=O)N[C@@H](Cc2ccc(O)cc2)C(=O)O)c1)C(C)(C)C [2X3, (3-(di-tert-butylfluorosilyl)-5-(((S)-2,6-diaminohexanamido)-methyl)benzoyl)glycyl-L-tyrosine]
[1]; [6]
  half-life: 21 ± 6 min
[2]; [7]
  half-life: 20 ± 2.9 min
[3]; [8]
  half-life: 48 ± 13 h

## CC(C)(C)[Si](F)(c1cc(CNC(=O)[C@@H](N)CCC(=O)O)cc(C(=O)NCC(=O)N[C@@H](CCCCN)C(=O)O)c1)C(C)(C)C [3X1, (3-(((S)-2-amino-4-carboxybutanamido)methyl)-5-(di-tert-butylfluorosilyl)benzoyl)glycyl-L-lysine]
[1]; [6]
  half-life: 57 ± 1.3 min
[2]; [7]
  half-life: 34 ± 2.1 min
[3]; [8]
  half-life: 40 ± 0.6 h

## CC(C)(C)[Si](F)(c1cc(CNC(=O)[C@@H](N)CCC(=O)O)cc(C(=O)NCC(=O)N[C@@H](CC(=O)O)C(=O)O)c1)C(C)(C)C [3X2, (3-(((S)-2-amino-4-carboxybutanamido)methyl)-5-(di-tert-butylfluorosilyl)benzoyl)glycyl-L-aspartic acid]
[1]; [6]
  half-life: 597 ± 43 min
[2]; [7]
  half-life: 90 ± 3.6 min
[3]; [8]
  half-life: 59 ± 5.2 h

## CC(C)(C)[Si](F)(c1cc(CNC(=O)[C@@H](N)CCC(=O)O)cc(C(=O)NCC(=O)N[C@@H](Cc2ccc(O)cc2)C(=O)O)c1)C(C)(C)C [3X3, (S)-4-amino-5-((3-((2-(((S)-1-carboxy-2-(4-hydroxyphenyl)-ethyl)amino)-2-oxoethyl)carbamoyl)-5-(di-tert-butylfluorosilyl)-benzyl)amino)-5-oxopentanoic acid]
[1]; [6]
  half-life: 29 ± 0.8 min
[2]; [7]
  half-life: 57 ± 1.6 min
[3]; [8]
  half-life: 42 ± 7.8 h

## CC(=O)N[C@@H]1[C@@H](O)[C@H](O)[C@@H](CO)O[C@H]1NC(=O)C[C@H](NC(=O)CON=CCCC[N+](C)(C)Cc1ccc([Si](F)(C(C)(C)C)C(C)(C)C)cc1)C(=O)N[C@@H](CC(=O)O)C(=O)N[C@@H](CC(=O)O)C(=O)NCCOCCOCC(=O)N[C@H](Cc1ccccc1)C(=O)N[C@H]1CSSC[C@@H](C(=O)N[C@H](C(=O)O)[C@@H](C)O)NC(=O)[C@H]([C@@H](C)O)NC(=O)[C@H](CCCCN)NC(=O)[C@@H](Cc2c[nH]c3ccccc23)NC(=O)[C@H](Cc2ccc(O)cc2)NC1=O [SiFAlin-TATE, reference compound]
[4]
  HSA binding (HPAC): 92%

## C[C@@H](O)[C@H](NC(=O)[C@@H]1CSSC[C@H](NC(=O)[C@@H](Cc2ccccc2)NC(=O)COCCOCCNC(=O)[C@@H](CNC(=O)CN2CCN(CC(=O)O)CCN(CC(=O)O)CCN(CC(=O)O)CC2)NC(=O)COCCOCCNC(=O)c2ccc([Si](F)(C(C)(C)C)C(C)(C)C)cc2)C(=O)N[C@@H](Cc2ccc(O)cc2)C(=O)N[C@H](Cc2c[nH]c3ccccc23)C(=O)N[C@@H](CCCCN)C(=O)N[C@@H]([C@@H](C)O)C(=O)N1)C(=O)O [[177Lu]Lu-(SiFA)BA-rhTATE3, metal not drawn]
[5]
  Intact tracer in human serum, 24 h: 60 ± 1.0%
  remaining at 24 h, 25 MBq/mL: 60%

## C[C@@H](O)[C@H](NC(=O)[C@@H]1CSSC[C@H](NC(=O)[C@@H](Cc2ccccc2)NC(=O)COCCOCCNC(=O)[C@@H](CNC(=O)CN2CCN(CC(=O)O)CCN(CC(=O)O)CCN(CC(=O)O)CC2)NC(=O)COCCOCCNC(=O)c2cc(CN)cc([Si](F)(C(C)(C)C)C(C)(C)C)c2)C(=O)N[C@@H](Cc2ccc(O)cc2)C(=O)N[C@H](Cc2c[nH]c3ccccc23)C(=O)N[C@@H](CCCCN)C(=O)N[C@@H]([C@@H](C)O)C(=O)N1)C(=O)O [[177Lu]Lu-(SiFA)SeFe-rhTATE3, metal not drawn]
[5]
  Intact tracer in human serum, 24 h: 94 ± 3.0%
  remaining at 24 h, 25 MBq/mL: 94%

## C[C@@H](O)[C@H](NC(=O)[C@@H]1CSSC[C@H](NC(=O)[C@@H](Cc2ccccc2)NC(=O)CN2CCN(CC(=O)O)CCN(CC(=O)NC[C@@H](NC(=O)c3cc(CN)cc([Si](F)(C(C)(C)C)C(C)(C)C)c3)C(=O)O)CCN(CC(=O)O)CC2)C(=O)N[C@@H](Cc2ccc(O)cc2)C(=O)N[C@H](Cc2c[nH]c3ccccc23)C(=O)N[C@@H](CCCCN)C(=O)N[C@@H]([C@@H](C)O)C(=O)N1)C(=O)O [[natGa]Ga-(SiFA)SeFe-rhTATE1, metal not drawn]
[4]
  HSA binding (HPAC): 99%
[4]; listed as [^natGa]Ga-(SiFA)SeFe-rhTATE1
  HSA binding (HPAC): 98−99%

## C[C@@H](O)[C@H](NC(=O)[C@@H]1CSSC[C@H](NC(=O)[C@@H](Cc2ccccc2)NC(=O)CN2CCN(CC(=O)O)CCN(CC(=O)NC[C@@H](NC(=O)c3cc(CNC(=O)C[C@@H](N)C(=O)O)cc([Si](F)(C(C)(C)C)C(C)(C)C)c3)C(=O)O)CCN(CC(=O)O)CC2)C(=O)N[C@@H](Cc2ccc(O)cc2)C(=O)N[C@H](Cc2c[nH]c3ccccc23)C(=O)N[C@@H](CCCCN)C(=O)N[C@@H]([C@@H](C)O)C(=O)N1)C(=O)O [[natGa]Ga-(SiFA)SeFe-rhTATE2, metal not drawn]
[4]
  HSA binding (HPAC): 99%
[4]; listed as [^natGa]Ga-(SiFA)SeFe-rhTATE2
  HSA binding (HPAC): 98−99%

## C[C@@H](O)[C@H](NC(=O)[C@@H]1CSSC[C@H](NC(=O)[C@@H](Cc2ccccc2)NC(=O)COCCOCCNC(=O)[C@@H](CNC(=O)CN2CCN(CC(=O)O)CCN(CC(=O)O)CCN(CC(=O)O)CC2)NC(=O)COCCOCCNC(=O)c2cc(CN)cc([Si](F)(C(C)(C)C)C(C)(C)C)c2)C(=O)N[C@@H](Cc2ccc(O)cc2)C(=O)N[C@H](Cc2c[nH]c3ccccc23)C(=O)N[C@@H](CCCCN)C(=O)N[C@@H]([C@@H](C)O)C(=O)N1)C(=O)O [[natLu]Lu-(SiFA)SeFe-rhTATE3, metal not drawn]
[4]
  HSA binding (HPAC): 98%
[4]; listed as [^natLu]Lu-(SiFA)SeFe-rhTATE3
  HSA binding (HPAC): 98−99%
